Results on four molecules are retold here after patent US8772349B2, “Cannabinoid quinone derivatives” (Vivacell Biotechnology Espana, S.L., priority 2010, dated 2014).

Usually IC50 stands for the concentration that gives 50% inhibition.

Bounds are passed on as bounds.

A short description of series [1]: MTT cytotoxicity assay, AGS. The following applies: human.
Procedure: (§1) All cellular lines were grown at 37° C. and 5% CO2 in supplemented Dulbecco's modified Eagle's medium (DMEM) (Cambrex Co., Barcelona, Spain), containing 10% heat-inactivated fetal bovine serum (FBS) (Cambrex Co., Barcelona, Spain), 2 mM glutamine, penicillin (50 U/ml) and streptomycin (50 mg/ml).
(§2) Aliquots of cell suspensions were dispensed at 100 μl volumes into wells of 96-well tissue culture plates at a density of 10^4 cells/well. […] In each MTT assay, every concentration of the assayed substance was tested in three replicates. The inhibitory effect of the various compounds was calculated as percentage inhibition relative to cells treated with vehicle (0.5% DMSO).
A short description of series [2]: MTT cytotoxicity assay, MDA. The following applies: human.
Procedure: as §1, §2
The nature of series [3]: MTT cytotoxicity assay, HeLa. The following applies: human.
Procedure: as §1, §2
A short description of series [4]: MTT cytotoxicity assay, T47D. The following applies: human. A general note: Tetrazolium assays rely on reduction of a dye to a coloured formazan, in cell work by metabolically active cells.
Procedure: as §1, §2
Series [5] can be described thus: MTT cytotoxicity assay, HCT116. The following applies: human.
Procedure: as §1, §2
Series [6] can be described thus: MTT cytotoxicity assay, 3T3-L1. To be noted: mouse.
Procedure: All cellular lines were grown at 37° C. and 5% CO2 in supplemented Dulbecco's modified Eagle's medium (DMEM) (Cambrex Co., Barcelona, Spain), containing 10% heat-inactivated fetal bovine serum (FBS) (Cambrex Co., Barcelona, Spain), 2 mM glutamine, penicillin (50 U/ml) and streptomycin (50 mg/ml). […] MSC were maintained in α-MEM with 15% FBS.
as §2
Series [7] concerns T47D, human breast adenocarcinoma. Kind of series: MTT cytotoxicity assay, T47D. The following applies: read-out: IC50 values of MTT cytotoxicity assay; T47D, 24 hours of treatment.
Procedure: as §1, §2
The next series concerns 3T3-L1 fibroblasts. The series is described as follows: 3T3-L1 adipocyte differentiation assay / total triglyceride quantification.
A further series relates to 3T3-L1 pre-adipocytes. Kind of series: Glucose uptake (2-deoxy-D-glucose transport). To be noted: FIG. 6; for glucose uptake: presence and absence of insulin (1.74 μM). In kind it is cell-based, mouse. The procedure:
For assays of 2-deoxy-D-glucose transport 3T3-L1 pre-adipocytes cultured in 12-well plates were deprived of serum by incubation for 2 hours. […] Glucose transport was initiated by the addition of 50 μl of KRH buffer containing 0.5 mM 2-deoxy-D-[1, 2-3H]glucose (0.25 μCi) to each well; after 5 minutes, transport was terminated by washing the cells 3 times with ice-cold KRH buffer. The cells were solubilized, and the incorporated radioactivity was measured by liquid scintillation counting.
Data are given as means with deviation standard error bars of three replicates. […]

The test system of series [8] is bone-marrow derived mesenchimal cells. The series is described as follows: Mesenchymal stem cell differentiation to osteoblasts or adipocytes, marker gene expression by QRT-PCR. In kind it is cell-based. To be noted: human MSC, compounds in differentiation medium, FIG. 7. As to the method: Cells were plated at 500 cell/cm^2 on P6 plates (TPP, Trasadingen, Switzerland) containing α-MEM medium with 10% FBS. When the cell cultures were 80-90% confluent, the medium was supplemented with 10^−8 M dexamethasone, 0.2 mM ascorbic acid and 10 mM β-glycerolphosphate to induce differentiation to osteoblasts, and 5×10^−7 M dexamethasone, 0.5 mM isobutylmethylxanthine and […] indometacin to induce differentiation to adipocytes. All inducers were from Sigma-Aldrich. MSC (mesenchymal stem cells) were grown in an osteogenic or adipogenic medium for 21 days, together with a corresponding control (in the absence of differentiation inducers). Cell samples were collected at day 13. […] Expression values of nuclear ribosomal DNA were used to normalise the obtained values. Adipocyte and osteoblasts were obtained by differentiation of human mesenchymal stem cells grown in adipogenic or osteoblastogenic specific differentiation culture mediums. […] Bone forming osteoblasts and fat forming adipocytes are both derived from mesenchymal stem cells (MSCs). An increase in PPARg activity due to treatment with the antidiabetic thiazolidinedione (TZD) drug rosiglitazone results in a decreased number of osteoblasts and an increased number of adipocytes.

The subject of series [9] is adipokines gene expression (IL-6, AdipoQ). Kind of series: Adipocyte and adipokine gene expression by PCR in 3T3-L1 adipocytes. To be noted: FIG. 5.
Procedure: 3T3-L1 fibroblasts were grown until confluence (3 days) in DMEM with 10% FBS and antibiotics. Then (day 0), medium was supplemented with 1 μM dexamethasone, IBMX 0.5 mM and 10 μg/ml insulin, to induce differentiation for 2 days. In day 2, the medium was supplemented only with 5 μg/ml insulin for two more days. All mediums used were additionally supplemented with cannabinoids, or rosiglitazone (1 μM) as control, since day 0. In case of RNA extractions, cells were harvested on day 4. […] GAPDH gene was used as houskeeping gene.
Setting [10] is: AGS cells (human gastric adenocarcinoma).
[11] abbreviates: MDA cells (human breast cancer).
[12] abbreviates: HeLa cells (human cervical carcinoma).
Setting [13] is: T47D cells (human breast adenocarcinoma).
Setting [14] is: HCT116 cells (human colon carcinoma).
Setting [15] is: 3T3-L1 cells (mouse embryonic fibroblast, adipose-like).

Procedure for 3T3-L1 fibroblasts: The 3T3-L1 preadipocyte cell line was plated at a concentration of 2×10^5 cell/well in 6-well plates for RNA isolations and tygliceride cunatification. 3T3-L1 fibroblasts were grown until confluence (3 days) in DMEM with 10% FBS and antibiotics. Then (day 0), medium was supplemented with 1 μM dexamethasone, IBMX 0.5 mM and 10 μg/ml insulin, to induce differentiation for 2 days. In day 2, the medium was supplemented only with 5 μg/ml insulin for two more days. All mediums used were additionally supplemented with cannabinoids, or rosiglitazone (1 μM) as control, since day 0. […] For trygliceride cuantification, cells were maintained in medium supplemented with cannabinoids until day 12 and refreshed every two days. […] 3T3-L1 fully differentiated adipocytes were washed in PBS and sonicated three times for 5 seconds in a buffer containing 2 M NaCl, 2 mM EDTA and 50 mM sodium phosphate pH 7.4 to release cellular content. Total triglyceride content released was quantified using a commercial Triglyceride Assay kit (Applied BioSystem, Spain) based on a colorimetric reaction and measured by absorbance at 500 nm in a spectrophotometer.

For the molecule `C=C(C)[C@@H]1CCC(C)=C[C@H]1c1c(O)cc(CCCCC)cc1O` [CBD, cannabidiol], the IC50 at 24 h in series [1] (setting [10]) was 25 µM; in series [2] (setting [11]), more than 50 µM; in series [3] (setting [12]) it was more than 50 µM; in [4] (setting [13]), 35 µM; in series [5] (setting [14]), more than 50 µM; in series [6] (setting [15]), 30 µM.

In the case of `C=C(C)C1CCC(C)=C[C@H]1C1=C(O)C(=O)C(CCCCC)=CC1=O` (some centres unmarked) [CBD-Q, CBD-Quinone], the IC50 at 24 h in series [1] was found to be 7.44 µM; in series [2], 10.1 µM; in [3], 40.5 µM; in series [4] (IC50 values of MTT cytotoxicity assay, T47D, 24 hours of treatment) it was 20 µM; in series [5], 9.8 µM; in series [6] it was 12 µM. The half-inhibitory concentration (IC50) in series [7] was 17.1 µM. Moreover, in the series with 3T3-L1 fibroblasts (3T3-L1, FIG. 8C, lacking bar), the “cytotoxic effect in adipocyte differentiation assay, concentration” value is given as “higher than 1 μM”.

As for `CCCCCC1=CC(=O)C(C/C=C(\C)CCC=C(C)C)=C(O)C1=O` [CBG-Q, CBG Hydroxyquinone], the “glucose uptake compared with CBG” value with 3T3-L1 pre-adipocytes (absence of insulin) was “higher effect than CBG”. Also, in the series on 3T3-L1 pre-adipocytes, the glucose uptake entry is “able to increment the glucosa uptake both in presence and absence of insulin”. The “expression of marker genes in adipocytes and osteoblasts” value in series [8] is “no significant alteration in expression of marker genes”. In addition, the IC50 at 24 h was 48 µM in [1]; 49 µM in series [2]; more than 50 µM in series [3]; 44 µM in series [4]; 47 µM in series [5]; 49 µM in [6]. Also, the AdipoQ gene expression entry in series [9] is on record as “increment on AdipoQ”. Also, the IL-6 gene expression result in series [9] is listed as “reduction of the pro-inflammatory cytokine IL-6”. Also, the “differentiation of fibroblasts to adipocytes (total triglyceride), in words” value in the series with 3T3-L1 fibroblasts (3T3-L1, FIGS. 4 and 8C) was “stimulate the differentiation of fibroblasts to adipocytes in a stronger way than CBG”.

On to `CCCCCc1cc(O)c(C/C=C(\C)CCC=C(C)C)c(O)c1` [CBG, cannabigerol], for which the glucose uptake entry with 3T3-L1 pre-adipocytes is “able to increment the glucosa uptake both in presence and absence of insulin”. Also, the half-inhibitory concentration (IC50) at 24 h is more than 50 µM in series [1] (setting [10]); more than 50 µM in [2] (setting [11]); more than 50 µM in [3] (setting [12]); 47 µM in series [4] (setting [13]); more than 50 µM in series [5] (setting [14]); 42.2 µM in [6] (setting [15]). Moreover, in [9], the AdipoQ gene expression entry was “increment on AdipoQ”. For the same molecule, the IL-6 gene expression entry in [9] is recorded as “reduction of the pro-inflammatory cytokine IL-6”.
